Where “and” joins values, the source holds several entries; their conditions need not be identical. Identical values can stand only once. Entries after “also recorded” stand apart in the source; their conditions may differ.
Tests used:
[1] = Plasma pharmacokinetics after IV bolus in C.B-17 SCID mouse; type: in vivo; settings: mouse, at 10 mg/kg or equivalent
Method: Pharmacokinetic studies were carried out in the female C.B-17 SCID mouse. Either freshly prepared solutions of AZD4320 in 30% hydroxypropyl-β-cyclodextrin or drug-dendrimer conjugates in phosphate buffered saline were injected as a bolus into the tail vein at dosing volume of 5 ml/kg. Blood samples were collected at different time points post dose and analysed as below.
Blood samples were collected from the jugular vein by venepuncture into K2EDTA (as anticoagulant) tubes. Immediately following collection into the K2EDTA tube the samples were mixed gently and kept on crushed ice until centrifugation. Within 30 mins of blood collection, each sample was centrifuged (1500 g for 10 min at 4 °C) to generate plasma which was kept on wet ice at all times in polypropylene tubes. Duplicate 50 μL aliquots were transferred immediately after centrifugation into uniquely labelled polypropylene tubes (‘released’ AZD4320) containing equivalent amount (50 μL) of 0.2 M citric acid solution, inverted 10 times and then stored in a freezer set to maintain a temperature of −80 °C, until analysis.
The concentrations of ‘total’ AZD4320 were determined in plasma by overnight incubation with hydrazine followed by protein precipitation with acetonitrile and subsequent liquid/liquid extraction. Liquid chromatography with mass spectrometric detection (LC-MS/MS, details in Supplementary Table 5) was used to quantitate both ‘released’ and ‘total’ AZD4320.
Sample analyses were performed in batches containing study samples, calibration standards at 10 concentration levels, QC samples at three concentration levels in duplicate and blank samples. The analytical run acceptance criteria for calibration standards and QC samples was that at least 75% of back-calculated concentrations for calibration standards and at least 2/3 of the QC samples (at least 50% at each concentration level) should be within ±20% (±25% at LLOQ) from nominal value.

RS4;11 xenograft = test: RS4;11 mouse xenograft efficacy (tumour volume); type: in vivo, C.B-17 SCID mouse; parameters: key to tumour volume, individual animals: tumour volume in mm³, length × width²/0.52; settings: for tumour volume, individual animals: 20 mg/kg AZD4320
Method: Female C.B.−17 SCID mice were purchased from Charles River Laboratories. Mice were 5–8 weeks old at the time of tumour implantation. All xenograft studies were conducted at our Association for the Assessment and Accreditation of Laboratory Animal Care accredited facility in Waltham, MA in accordance with ethical regulations described in the guidelines established by the internal Institutional Animal Care and Use Committee. The dendrimer conjugates were formulated in citrate/phosphate buffer pH 5.0, diluted 1:10 with 5% glucose containing 1% w/v Kolliphor HS15, and AZD4320 was formulated in 30% HP-β-CD and dosed as a weekly intravenous (IV) administration at a volume of 5 ml/kg at the indicated doses. Five million RS4;11, five million SUDHL-4 or five million OCI-LY-10 cells were injected subcutaneously in the right flank of mice in a volume of 0.1 ml. Tumour volumes (measured by caliper), animal body weight, and tumor condition were recorded twice weekly for the duration of the study. The tumour volume was calculated (taking length to be the longest diameter across the tumour and width to be the corresponding perpendicular diameter) using the formula: length (mm) x width (mm)^2/0.52. For efficacy studies, mice were randomized based on tumour volumes using stratified sampling and enrolled into control and treatment groups. Tumour growth inhibition from the start of treatment was quantified by measuring the difference in tumour volume between control and treated groups. Survival analysis was evaluated using Mantel-Cox test. Tumours were also taken for bioanalysis.

telemetered rats = test: Conscious rat telemetry (QRS amplitude, blood pressure, tolerability); settings: telemetered rat; AZD4320 10 mg/kg, conjugates 30 mg/kg IV;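 note: male Han Wistar rats carrying implanted telemetry transmitters, with ECG and arterial pressure recorded continuously while unrestrained in their home cage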
Source text: Male Han Wistar rats were implanted with HD‐S11 transmitters (Data Sciences International, St. Paul, MN USA) under isoflurane anaesthesia, the telemetry transmitter was placed in the peritoneal cavity, the arterial blood pressure catheter was placed in the terminal abdominal aorta and the ECG electrodes were sutured, one at the dorsal surface of the xiphoid process and one at the anterior mediastinum, close to the right atrium[42]. Animals were allowed to recover for at least 2 weeks and were around 2–3 months at the time of experimentation. The animals were pair‐housed in standard rat cages with a non‐instrumented companion throughout the study. Cages were prepared with bedding material and enrichment.
Telemetry recordings took place in the home cage. […] The animals were removed from the cage temporarily for dosing and blood sampling. Animals were not subject to restraint except where dosing and blood sampling was performed. Data acquisition used Dataquest Open A.R.T.™ with HEM software version 4.2 (Notocord Inc).
For evaluation of AZD4320, n = 8 rats received single doses of 0 (vehicle: 30% Kleptose, pH9) or 10 mg/kg AZD4320, administered as a 30-min intravenous infusion. A cross-over study design was used, with an interval of 7 days between treatments.
Data for all parameters were collected continuously during the recording period. The continuous data from each animal was binned into chosen time intervals of varying length and averaged to generate a single data point for each reported nominal time. Each reported nominal timepoint was then averaged across each of the animals tested for each dose level.

Substance: AZD4320-MIDA-PEG2100 [AZD0466]
- Total Concentration in Plasma as AZD4320, Mean (Fig S9) ([1]; 1 hr): 117.3 µg/mL
- Total Concentration in Plasma as AZD4320, Mean (Fig S9) ([1]; 3 hr): 49.1 µg/mL
- Total Concentration in Plasma as AZD4320, Mean (Fig S9) ([1]; 9 hr): 36.3 µg/mL
- Total Concentration in Plasma as AZD4320, Mean (Fig S9) ([1]; 20 hr): 8.0 µg/mL
- tumour volume, individual animals (RS4;11 xenograft; Day 38, listed as SPL-8977, 20 mg/kg, in mm³ (unit assumed)): 600 and 609 and 679 and 641
- tumour volume, individual animals (RS4;11 xenograft; Day 41, listed as SPL-8977, 20 mg/kg, in mm³ (unit assumed)): 419 and 480 and 364 and 544
- tumour volume, individual animals (RS4;11 xenograft; Day 45, listed as SPL-8977, 20 mg/kg): 0 (2×) and 133 and 130
- tumour volume, individual animals (RS4;11 xenograft; Day 48, listed as SPL-8977, 20 mg/kg): 0 (3×) and 75
- tumour volume, individual animals (RS4;11 xenograft; Day 52, listed as SPL-8977, 20 mg/kg): 0 (3×) and 134
- tumour volume, individual animals (RS4;11 xenograft; Day 55, in mm³ (unit assumed)): 0
- tumour volume, individual animals (RS4;11 xenograft; Day 59, listed as SPL-8977, 20 mg/kg): 0 (2×) and 122 and 66
- tumour volume, individual animals (RS4;11 xenograft; Day 63, listed as SPL-8977, 20 mg/kg, in mm³ (unit assumed)): 275 and 244 and 0 and 343
- tumour volume, individual animals (RS4;11 xenograft; Day 66, listed as SPL-8977, 20 mg/kg, in mm³ (unit assumed)): 255 and 188 and 196 and 333
- tumour volume, individual animals (RS4;11 xenograft; Day 69, listed as SPL-8977, 20 mg/kg, in mm³ (unit assumed)): 384 and 259 and 193 and 637
- tumour volume, individual animals (RS4;11 xenograft; Day 73, listed as SPL-8977, 20 mg/kg, in mm³ (unit assumed)): 574 and 450 and 240 and 837
- AZD4320-equivalent dose of dendrimer conjugate needed to match efficacy of AZD4320 (RS4;11 xenograft; RS4;11): approximately twice the dose
- magnitude of in vivo efficacy (RS4;11 xenograft; RS4;11, 20 mg/kg AZD4320 equivalent dose vs SPL-8932 20 mg/kg equivalent and AZD4320 10 mg/kg): comparable to that of SPL-8932 and AZD4320
- Tumour volume, Geo Mean (RS4;11 xenograft; RS4;11, AZD0466 10 mg/kg (3mg/kg AZD4320), day 41): 492.913
- Tumour volume, Geo Mean (RS4;11 xenograft; RS4;11, AZD0466 10 mg/kg (3mg/kg AZD4320), day 44): 317.328
- Tumour volume, Geo Mean (RS4;11 xenograft; RS4;11, AZD0466 10 mg/kg (3mg/kg AZD4320), day 48): 5.078
- Tumour volume, Geo Mean (RS4;11 xenograft; RS4;11, AZD0466 10 mg/kg (3mg/kg AZD4320), day 51): 2.414
- Tumour volume, Geo Mean (RS4;11 xenograft; RS4;11, AZD0466 10 mg/kg (3mg/kg AZD4320), day 55): 1
- Tumour volume, Geo Mean (RS4;11 xenograft; RS4;11, AZD0466 10 mg/kg (3mg/kg AZD4320), day 58): 49.5834
- Tumour volume, Geo Mean (RS4;11 xenograft; RS4;11, AZD0466 10 mg/kg (3mg/kg AZD4320), day 63): 177.592
- Tumour volume, Geo Mean (RS4;11 xenograft; RS4;11, AZD0466 10 mg/kg (3mg/kg AZD4320), day 66): 258.58
- Tumour volume, Geo Mean (RS4;11 xenograft; RS4;11, AZD0466 10 mg/kg (3mg/kg AZD4320), day 70): 353.377
- Tumour volume, Geo Mean (RS4;11 xenograft; RS4;11, AZD0466 10 mg/kg (3mg/kg AZD4320), day 73): 450.085
- Tumour volume, Geo Mean (RS4;11 xenograft; RS4;11, AZD0466 10 mg/kg (3mg/kg AZD4320), day 77): 770.449
- Tumour volume, Geo Mean (RS4;11 xenograft; RS4;11, AZD0466 10 mg/kg (3mg/kg AZD4320), day 80): 703.796
- Tumour volume, Geo Mean (RS4;11 xenograft; RS4;11, AZD0466 10 mg/kg (3mg/kg AZD4320), day 83): 919.497
- Tumour volume, Geo Mean (RS4;11 xenograft; RS4;11, AZD0466 34 mg/kg (10mg/kg AZD4320), day 41): 491.258
- Tumour volume, Geo Mean (RS4;11 xenograft; RS4;11, AZD0466 34 mg/kg (10mg/kg AZD4320), day 44): 242.554
- Tumour volume, Geo Mean (RS4;11 xenograft; RS4;11, AZD0466 34 mg/kg (10mg/kg AZD4320), day 48): 1.95
- Tumour volume, Geo Mean (RS4;11 xenograft; RS4;11, AZD0466 34 mg/kg (10mg/kg AZD4320), day 51): 1
- Tumour volume, Geo Mean (RS4;11 xenograft; RS4;11, AZD0466 34 mg/kg (10mg/kg AZD4320), day 55): 1
- Tumour volume, Geo Mean (RS4;11 xenograft; RS4;11, AZD0466 34 mg/kg (10mg/kg AZD4320), day 58): 1
- Tumour volume, Geo Mean (RS4;11 xenograft; RS4;11, AZD0466 34 mg/kg (10mg/kg AZD4320), day 63): 24.9155
- Tumour volume, Geo Mean (RS4;11 xenograft; RS4;11, AZD0466 34 mg/kg (10mg/kg AZD4320), day 66): 88.4785
- Tumour volume, Geo Mean (RS4;11 xenograft; RS4;11, AZD0466 34 mg/kg (10mg/kg AZD4320), day 70): 55.1235
- Tumour volume, Geo Mean (RS4;11 xenograft; RS4;11, AZD0466 34 mg/kg (10mg/kg AZD4320), day 73): 52.3606
- Tumour volume, Geo Mean (RS4;11 xenograft; RS4;11, AZD0466 34 mg/kg (10mg/kg AZD4320), day 77): 71.4432
- Tumour volume, Geo Mean (RS4;11 xenograft; RS4;11, AZD0466 34 mg/kg (10mg/kg AZD4320), day 80): 194.327
- Tumour volume, Geo Mean (RS4;11 xenograft; RS4;11, AZD0466 34 mg/kg (10mg/kg AZD4320), day 83): 206.49
- Tumour volume, Geo Mean (RS4;11 xenograft; RS4;11, AZD0466 103 mg/kg (30mg/kg AZD4320), day 41): 495.68
- Tumour volume, Geo Mean (RS4;11 xenograft; RS4;11, AZD0466 103 mg/kg (30mg/kg AZD4320), day 44): 271.066
- Tumour volume, Geo Mean (RS4;11 xenograft; RS4;11, AZD0466 103 mg/kg (30mg/kg AZD4320), day 48): 1.967
- Tumour volume, Geo Mean (RS4;11 xenograft; RS4;11, AZD0466 103 mg/kg (30mg/kg AZD4320), day 51): 1
- Tumour volume, Geo Mean (RS4;11 xenograft; RS4;11, AZD0466 103 mg/kg (30mg/kg AZD4320), day 55): 1
- Tumour volume, Geo Mean (RS4;11 xenograft; RS4;11, AZD0466 103 mg/kg (30mg/kg AZD4320), day 58): 1
- Tumour volume, Geo Mean (RS4;11 xenograft; RS4;11, AZD0466 103 mg/kg (30mg/kg AZD4320), day 63): 5.6048
- Tumour volume, Geo Mean (RS4;11 xenograft; RS4;11, AZD0466 103 mg/kg (30mg/kg AZD4320), day 66): 13.7221
- Tumour volume, Geo Mean (RS4;11 xenograft; RS4;11, AZD0466 103 mg/kg (30mg/kg AZD4320), day 70): 40.3244
- Tumour volume, Geo Mean (RS4;11 xenograft; RS4;11, AZD0466 103 mg/kg (30mg/kg AZD4320), day 73): 44.9682
- Tumour volume, Geo Mean (RS4;11 xenograft; RS4;11, AZD0466 103 mg/kg (30mg/kg AZD4320), day 77): 64.9706
- Tumour volume, Geo Mean (RS4;11 xenograft; RS4;11, AZD0466 103 mg/kg (30mg/kg AZD4320), day 80): 64.3873
- Tumour volume, Geo Mean (RS4;11 xenograft; RS4;11, AZD0466 103 mg/kg (30mg/kg AZD4320), day 83): 200.25
- animals remaining tumour free for up to 6 weeks (RS4;11 xenograft; RS4;11, highest dose (30 mg/kg AZD4320-equivalent)): 2/6
- regression during treatment period (RS4;11 xenograft; RS4;11, weekly IV, 10 mg/kg and 30 mg/kg AZD4320-equivalent): Complete tumour regression
- tumour regression (RS4;11 xenograft; RS4;11, weekly IV, 3, 10 and 30 mg/kg AZD4320-equivalent dose, each dose group): tumour regression in all 6 mice
- effect on QRS amplitude (telemetered rats): no effect on QRS amplitude; also recorded: no reduction in QRS amplitude; also recorded: negligible effect on QRS amplitude
